Assay results reported in patent US20040259948A1, “Reciprocal regulation of inflammation and lipid metabolism by liver X receptors” (priority 2003, published 2004).

Key:
[1] = tested on: Thioglycolate-elicited murine peritoneal macrophages; experiment: Expression of NF-κB target genes in LPS-treated macrophages (northern blot, real-time quantitative PCR); assay type: cell-based
Method: LPS is an established inducer of the NF-κB signaling pathway in macrophages. Several genes inhibited by LXR ligands in the array studies above are established targets of NF-κB. To further investigate the role of LXRs in NF-κB-dependent gene expression, we analyzed expression of NF-κB target genes in peritoneal macrophages from wild-type mice. […] Expression of NF-κB target genes was determined by northern blot (A) or by real-time quantitative PCR assays (B). 36B4 was used as a control for RNA loading and integrity. […] RNA and protein analysis. Total RNA was extracted using Trizol reagent (Life Technologies, Inc.). Northern blot analysis was carried out as described using radiolabeled cDNA probes (Tontonoz, P. et al. 1998 Cell 93:241-252). Real-time quantitative PCR (TaqMan) analysis was performed using an Applied Biosystems 7700 sequence detector. Two-step real-time PCR was performed as described (Joseph, S. B. et al. 2002 J Biol Chem 277:11019-11025). The primers and probes used are as follows: […]

LXRα/RXRα = target: T1, LXRα/RXRα (Homo sapiens, UniProt Q13133); experiment: Luciferase reporter transfection in RAW 264.7 cells, LXRα/RXRα; assay type: cell-based; settings: 2 μM
T1 construct: expressed in transfected cells; host or cells: RAW 264.7
T1 sequence (Q13133 1-447): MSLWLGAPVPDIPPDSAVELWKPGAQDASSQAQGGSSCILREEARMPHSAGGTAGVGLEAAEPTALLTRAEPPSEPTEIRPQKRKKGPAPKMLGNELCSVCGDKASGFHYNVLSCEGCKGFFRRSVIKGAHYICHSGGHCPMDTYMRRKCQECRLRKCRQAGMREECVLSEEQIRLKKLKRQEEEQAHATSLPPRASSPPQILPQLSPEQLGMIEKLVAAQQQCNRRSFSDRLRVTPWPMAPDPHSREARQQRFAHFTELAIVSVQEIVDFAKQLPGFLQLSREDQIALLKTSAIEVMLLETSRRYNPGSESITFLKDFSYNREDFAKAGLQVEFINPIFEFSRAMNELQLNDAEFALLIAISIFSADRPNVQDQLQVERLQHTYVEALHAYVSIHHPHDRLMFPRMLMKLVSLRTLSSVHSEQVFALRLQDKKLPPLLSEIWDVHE
T1 sequence (P19793 1-462 partner): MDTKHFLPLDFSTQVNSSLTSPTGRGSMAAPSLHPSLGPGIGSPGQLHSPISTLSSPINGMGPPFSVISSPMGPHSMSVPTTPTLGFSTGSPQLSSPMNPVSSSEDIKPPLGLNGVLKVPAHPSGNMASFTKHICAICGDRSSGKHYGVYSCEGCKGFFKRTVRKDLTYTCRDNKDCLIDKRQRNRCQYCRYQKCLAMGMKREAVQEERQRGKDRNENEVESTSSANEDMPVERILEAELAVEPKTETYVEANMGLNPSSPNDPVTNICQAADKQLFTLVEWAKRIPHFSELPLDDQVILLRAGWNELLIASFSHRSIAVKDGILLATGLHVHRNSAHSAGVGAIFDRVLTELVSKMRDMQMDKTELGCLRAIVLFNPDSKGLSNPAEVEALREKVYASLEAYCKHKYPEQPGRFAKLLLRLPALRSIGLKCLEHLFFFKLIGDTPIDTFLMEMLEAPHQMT
Method: We next investigated the mechanism by which LXR inhibits iNOS and COX-2 expression. […] RAW 264.7 cells were transfected with expression vectors for either LXRα/RXRα or LXRβ/RXRα along with luciferase reporter constructs. The LXR agonist inhibited expression of both iNOS and COX-2 gene promoters in a receptor-dependent fashion (FIG. 4 A and B). […] E, A dominant-negative IKK expression vector (IKK DN) blocks LXR-dependent repression of the COX-2 promoter. Transfected cells were treated with DMSO (ctrl), GW3965 (GW), LPS, or GW3965 and LPS. […] RAW 264.7 cells were transiently transfected with expression vectors for LXRα/RXRα, LXRβ/RXRα or dominant-negative I kappa B kinase (IKK) along with iNOS (A), COX-2 (B, E, F), NF-κB (C), AP-1 (D) or COX-2/NF-κB mutant (F) luciferase reporters. […] As activation of iNOS and COX-2 gene promoters by LPS is known to depend on interactions between AP-1 and NF-κB transcription factors, the effect of LXR on minimal promoters containing binding sites for these factors was evaluated. […] Moreover, the inhibitory effect of LXR on the COX-2 promoter was lost when NF-κB activity was blocked by transfection of a dominant-negative IKK or when binding sites for NF-κB were mutated (FIGS. 4E and F). These observations indicate that inhibition of inflammatory gene expression by LXR ligands involves antagonism of NF-κB signaling.
Reagents and plasmids. […] Oxysterols, LDL and ox-LDL were from Sigma and Intracell, respectively. LPS from Salmonella typhimurium was from Sigma. Expression plasmids for LXRα, LXRβ and IKK-DN (Castrillo, A. et al. 2001 J Biol Chem 276:15854-15860; Laffitte, B. A. et al. 2001 Mol Cell Biol 21:7558-7568), and reporter plasmids for NOS-2, (NFκB)3-LUC, (AP-1)4-LUC and COX-2 have been described (Callejas, N. A. et al. 2000 Gastroenterology 119:493-501).
Cell culture and transfections. Thioglycolate-elicited peritoneal macrophages were cultured in RPMI containing 10% fetal bovine serum (FBS). RAW 264.7 cells were cultured in DMEM containing 10% FBS. For ligand treatments, cells were in cultured medium supplemented with 5% lipoprotein-deficient serum (LPDS) and ligands for 18 h before stimulation. Bacterial infection in vitro was performed as described (Chen, L. M. et al. 1996 Mol Microbiol 21:1101-1115). Transient transfections of RAW 264.7 cells were performed in triplicate in 48-well plates using Superfect reagent (Life Technologies). After transfection, cells were incubated in medium containing 10% LPDS and the indicated ligands for 18 h before stimulation with LPS for an additional 18 h. Luciferase activity was normalized to β-galactosidase activity. NO production was determined spectrophotometrically (Castrillo, A. et al. 2000 Mol Cell Biol 20:1692-1698).

[2] = pretreated 18 h, 100 ng/ml LPS 3 h and 6 h, northern blot
[3] = pretreated 18 h, 100 ng/ml LPS 6 h, real-time quantitative PCR

Compound: O=C(O)Cc1cccc(OCCCN(Cc2cccc(C(F)(F)F)c2Cl)CC(c2ccccc2)c2ccccc2)c1 [GW3965]
- receptor-independent induction of IL-6 [1]: modest receptor-independent induction
- receptor-independent induction of MCP-1 [1]: modest receptor-independent induction
- iNOS mRNA expression ([1]; LPS, FIG. 3a, receptor-dependent): inhibition
- COX-2 expression [1, 2]: effective inhibitors
- lκBα expression [1, 2]: effective inhibitors
- IL1-receptor antagonist (IL-1RN) expression [1, 3]: effective inhibitors
- IL-1β expression [1, 3]: effective inhibitors
- IL-6 expression [1, 3]: effective inhibitors
- MCP-1 expression [1, 3]: effective inhibitors
- induction of the COX-2 promoter by LPS (luciferase reporter) (LXRα/RXRα): inhibits induction
- induction of the iNOS promoter by LPS (luciferase reporter) (LXRα/RXRα): inhibits induction
- luciferase reporter containing multiple NF-κB binding sites (LXRα/RXRα; LPS): inhibits expression
- COX-2 luciferase reporter lacking the NF-κB binding site (LXRα/RXRα; LPS, COX-2/NF-κB mutant): fails to inhibit
- inhibitory effect on the COX-2 promoter with dominant-negative IKK (LXRα/RXRα; LPS, IKK-DN co-transfected, LXR vector not specified): lost
